Results as given in patent US5079252A, “Therapeutic compounds” (priority 1988, dated 1992).
Like-named read-outs stand apart in the source and are kept apart here.

How the values were obtained:
[1] = cited from earlier work
[2] = test system: Herpes Simplex Virus (HSV 1); assay: HSV 1 plaque reduction assay in Vero cell monolayers; format: cell-based; conditions: read-out: 50% inhibitory concentration (IC50)
Method: Herpes Simplex Virus (HSV 1) was assayed in monolayers of Vero cells in multiwell trays. Activity of compounds was determined in the plaque reduction assay, in which a cell monolayer was infected with a suspension of HSV 1, and then overlaid with nutrient agarose in the form of a gel to ensure that there was no spread of virus throughout the culture. A range of concentrations of compound of known molarity was incorporated in the nutrient agarose overlay. Plaque numbers at each concentration are expressed as percentages of the control and a dose-response curve was drawn. From this curve the 50% inhibitory concentration (IC50) was estimated.

[3] = background statement; cited from earlier work
herpes viruses = conditions: cited from earlier work
[4] = Plasma levels of acyclovir after oral administration in animals; format: in vivo
[5] = Oral bioavailability in rats: urinary recovery as acyclovir after oral administration (gavage); format: in vivo, Long Evans Rates (rats)
Method: Long Evans Rates are administered the compound to be tested by gavage at a dose equivalent to 25 mg/kg acyclovir. The urine is collected for 24 and 48 hours post-dose, ultrafiltered, and analysed by reverse-phase high-pressure liquid chromatography. The oral bioavailability of the compound is expressed as the percent of the dose excreted in the urine as acyclovir.

SMILES | solubility in water [1] | IC50 ([2]; Vero) [nM] | absorption from the gastrointestinal tract after oral administration [3] | antiviral activity, particularly against herpes viruses (herpes viruses) | levels of acyclovir in the plasma [4] | IC50 ([2]; HSV 1, Vero cells, plaque reduction) [nM] | bioavailability compared with acyclovir or the esters disclosed in UK 1523865 and 1561380 ([5]; oral) | Urinary Recovery (% of dose) as acyclovir ([5]; rats, gavage, dose equivalent to 25 mg/kg acyclovir, urine 24 and 48 hours post-dose)
Nc1nc2c(ncn2COCCO)c(=O)[nH]1 [Acyclovir, 9-(2-Hydroxyethoxymethyl)guanine] | poorly soluble | ~100 | only poorly absorbed | potent antiviral activity | – | – | – | –
CCCCC(=O)OCCOCn1cnc2c(=O)[nH]c(N)nc21 [Example A, 9-(2-valeryloxyethoxymethyl)guanine] | – | – | – | – | measurable levels of acyclovir in the plasma | 200 | improved bioavailability | 34 % of dose
